# In patent US9168243B2, “Pharmaceutical compositions comprising 8-substituted dibenzylbutyrolactone lignans” (priority 2010, dated 2015):
# Entries after “also recorded” stand apart in the source; their conditions may differ.
# Experiments:
# Type in all cases: cell-based
# [1] = system: insulin receptor (IR) β-subunit and IGF-I receptor (IGF-IR) β-subunit; assay: Immunoprecipitation of IRβ and IGF-IRβ after insulin or IGF-I stimulation, Western blot for phospho-tyrosine and PI3K p85α; conditions: serum-starved LNCaP; 40-100 μM NTG 2 hours before 10 nM insulin or IGF-I, 10 minutes
# Experimental: (§1) The cells were treated with 0-100 μM lignans or solvent control for indicated times. Human recombinant isoleucin-zipper TRAIL (izTRAIL; kindly provided by Professor Henning Walczak) was used at 0-1 μg/ml with an incubation time of 20 hours. Prior to 10 minutes treatment with 10 nM IGF-1 (Millipore) or 10 nM insulin (Sigma) the cells were serum-starved (1% FCS) overnight. EGFR stimulation was performed on serum-starved cells with 20 ng/ml EGF for 5 minutes (a kind gift from Professor Klaus Elenius laboratory).
# The cells cultured on […] were placed on ice and rinsed with cold PBS. The cells were lysed in 1 ml of cold lysis buffer (50 mM Tris pH 7.4, 150 mM NaCl, 1 mM EDTA, 1.25% CHAPS, 1 mM Na3OV4, 2 mM NaF, 10 mM sodium pyrophosphate and complete protease inhibitor cocktail [Roche Applied Science]) for 10 minutes. […]
# To further investigate the specificity of this inhibitory effect, LNCaP cells were serum-starved overnight, treated with 0-100 μM NTG for 2 hours, and activated for 10 minutes with 10 nM insulin or IGF-I, after which insulin receptor (IR) β-subunit and IGF-I receptor (IGF-IR) β-subunit were immunoprecipitated (FIG. 5B). The precipitated complexes were analyzed by Western blotting for presence of PI3K p85α (85 kDa), IRβ (95 kDa), IGF-IRβ (95 kDa) and phospho-tyrosine and the expression of PI3K p85α, Akt and phospho-Akt(ser473) was probed from the lysates. […]
# [2] = system: EGF receptor (EGFR); assay: EGF-induced EGFR tyrosine 1068 phosphorylation, Western blot; conditions: LNCaP; pretreatment with 100 μM NTG; 20 ng/ml EGF, 5 minutes
# Experimental: as §1
# Whole cell lysates were prepared by lysing floating and attached cells in Laemmli sample buffer and boiling the samples for 10 minutes. Proteins were separated by SDS-PAGE and transferred on PVDF membrane (Millipore). Western blotting was performed using antibodies against Akt, phospho-Akt (Ser473), GSK-3β, phospho-GSK-3β (Ser9) and phospho-EGF receptor Tyr(1068) (Cell Signalling Technology), Actin (clone AC-40; Sigma-Aldrich), PI3K p85α (clone 4/PI3-Kinase; BD Pharmingen), EGF receptor, Insulin receptor β and IGF-I receptor β (Santa Cruz Biotechnology), and Phospho-tyrosine (clone 4G10; Millipore). HRP-conjugated secondary antibodies were from Southern Biotechnology Associates, Promega, and Amersham Biosciences. The results were visualized using the ECL method (Amersham Biosciences) on x-ray film. […]
# [3] = system: phospho-Akt(ser473); assay: Western blot of Akt / phospho-Akt(ser473)
# Experimental: Whole cell lysates were prepared by lysing floating and attached cells in Laemmli sample buffer and boiling the samples for 10 minutes. Proteins were separated by SDS-PAGE and transferred on PVDF membrane (Millipore). Western blotting was performed using antibodies against Akt, phospho-Akt (Ser473), GSK-3β, phospho-GSK-3β (Ser9) and phospho-EGF receptor Tyr(1068) (Cell Signalling Technology), Actin (clone AC-40; Sigma-Aldrich), PI3K p85α (clone 4/PI3-Kinase; BD Pharmingen), EGF receptor, Insulin receptor β and IGF-I receptor β (Santa Cruz Biotechnology), and Phospho-tyrosine (clone 4G10; Millipore). HRP-conjugated secondary antibodies were from Southern Biotechnology Associates, Promega, and Amersham Biosciences. The results were visualized using the ECL method (Amersham Biosciences) on x-ray film. The presented Western blot results are representative of at least three independent experiments. Densitometric analysis of Western blots was done using scanned films with the MCID M5+ software. The values were normalized to the untreated control sample, which was given the value 1. The histograms in FIG. 4 present a relative decrease in ratio of phosphorylated vs. non-phosphorylated protein compared to control cells.
# LNCaP cells (+/−1 nM androgen) were treated with 0-100 μM enterolactone (ENL), matairesinol (MAT) or NTG for 1 hour prior to preparation of total cell lysates (FIG. 4A). The relative decrease in pAkt/Akt ratio was quantified from western blot analysis with Akt (60 kDa) and phospho-Akt(ser473) (Mean±SEM; n=4; Student's t-test *p<0.05, **p<0.01). Alternatively, androgen-deprived LNCaP cells were incubated with 100 μM NTG for 2 hours, fixed and labeled with Akt antibody followed by Alexa 546-conjugated secondary antibody. The samples were viewed at LSM 510 confocal microscope (63× oil objective, 543 nm excitation) (FIG. 4B). To examine the time-dependence of the observed inhibitory effect, LNCaP cells (+/−1 nM androgen) were incubated with 100 μM NTG for 0-8 hours after which total cell lysates were prepared. The western blot analysis with Akt, phospho-Akt(ser473), GSK-3β and phospho-GSK-3β(ser9) was quantified. The histogram presents a relative decrease in pAkt/Akt ratio (FIG. 4C.) or pGSK-3β/GSK-3β ratio (FIG. 4D.) compared to control cells (Mean±SEM; n=3). […]
# Importantly, substitution with methyl group at position 8 further increases activity of dibenzylbutyrolactone lignans in sensitization of LNCaP prostate cancer cells to TRAIL-mediated apoptosis (FIG. 8). […] The samples were analyzed by flow cytometry and the fraction of sub-G0/G1 events (nuclear fragmentation) was detected as a measure of apoptotic cell death (mean±SEM; n=4). […]
# [4] = LNCaP +/- androgen, 100 μM NTG 2 hours, then medium change
smiles,measurement,setting,value
"COc1cc(CC2COC(=O)C2(O)Cc2ccc(O)c(OC)c2)ccc1O (stereo not drawn) [NTG, Nortrachelogenin]",amount of receptor-associated PI3K p85,[1],clearly reduced
same,receptor tyrosine phosphorylation of IR and IGF-IR,[1],decreased
same,EGF-induced tyrosine phosphorylation of EGFR,[2],attenuated the EGF-induced tyrosine phosphorylation of EGFR
same,Akt phosphorylation (pAkt/Akt ratio),"[3]; LNCaP +/- 1 nM androgen, 0-100 μM lignan, 1 hour (NTG also 100 μM, 0-8 hours)",downregulates Akt and GSK-3β phosphorylation; also recorded: inhibit Akt phosphorylation yet more efficiently than ENL or MAT
same,time after washout at which Akt activity starts returning,[3]; [4],10 min
same,time after washout to total recovery of Akt activity,[3]; [4],≤ 1 h
